Key:
[1] = system: PGE2 production in rat gastric mucosa; experiment: PGE2 production in rat gastric mucosa; type: in vivo; settings: rats, oral route, read-out: PGE2 gastric mucose ED50
Method: (§1) VI: PGE2 Production in Rat Inflammatory Exudate and Gastric Mucosa
(§2) The PGE2 production in rat inflammatory exudate and gastric mucosa is carried out as described in the publication of O Tofanetti et al., “Effect of nimesulide on cyclo-oxygenase activity in rat gastric mucosa and inflammatory exudate”, Med Sci Res 17, 745-746 (1989). The respective part of the description is hereby incorporated by reference and forms part of the present disclosure.
(§3) For this text 6 male wistar rats (Interfauna-St Feliú de Codines, Barcelona) of approximately 200 g (each approximately 6 weeks of age) are used. The compounds to be tested are administered via oral route in gum Arabic at 5% (weight/volume) at a rate of 10 ml/kg.
(§4) One hour after administration of the compounds and under halothane anaesthesia, each rat is implanted subcutaneously in the interescapular area a 40×15×5 mm polyester sponge, soaked in a 0.5% suspension of carrageenan. Rats are sacrificed 6 hours after the implant, the sponges are removed and squeezed. The exudates are collected and centrifuged at 6000×G for 15 minutes.
(§5) The rats's stomachs are removed and the gastric mucosa is detached from the underlying layers and by means of a 10 mm diameter die, mucosa samples from an area between the gastric corpus and pyloric antrum are taken. The mucosal PGE2 is extracted. PGE2 concentrations from the inflammatory exudates and the gastric mucosa are determined by means of inmmunoassay reagents of Cayman Chemical kit, Ann Arbor, Mich., U.S.A. (Catalogue number: 514010) according to the manufacturer's instructions.

Cox-1 = molecular target: T1, Cox-1 (Homo sapiens, UniProt P23219); experiment: Cox-1 activity in human whole blood (TXB2); type: cell-based; settings: read-out: hWB inhibition COX-1 IC50
T1 construct: from tissue; host or cells: fresh human whole blood
T1 sequence (P23219 24-599): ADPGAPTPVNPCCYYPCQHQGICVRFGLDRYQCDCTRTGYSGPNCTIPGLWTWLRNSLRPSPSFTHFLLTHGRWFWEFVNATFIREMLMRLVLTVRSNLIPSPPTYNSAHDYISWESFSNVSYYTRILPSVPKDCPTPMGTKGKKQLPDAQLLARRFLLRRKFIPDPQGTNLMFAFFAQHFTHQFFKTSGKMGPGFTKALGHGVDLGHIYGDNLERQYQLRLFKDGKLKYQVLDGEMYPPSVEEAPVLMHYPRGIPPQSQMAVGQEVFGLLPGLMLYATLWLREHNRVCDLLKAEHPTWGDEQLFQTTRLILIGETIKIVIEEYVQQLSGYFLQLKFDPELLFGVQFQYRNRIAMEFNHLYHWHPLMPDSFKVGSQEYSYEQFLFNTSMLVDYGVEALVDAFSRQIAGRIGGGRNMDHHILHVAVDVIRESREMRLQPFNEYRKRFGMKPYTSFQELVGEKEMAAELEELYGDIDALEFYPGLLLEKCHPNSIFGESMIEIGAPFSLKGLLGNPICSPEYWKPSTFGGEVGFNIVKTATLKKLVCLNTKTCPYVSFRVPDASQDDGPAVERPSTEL
Method: II. Determination of Cox-1- and Cox-2-Activity in Human Whole Blood
The Cox-1- and Cox-2-activity in human whole blood is determined according to a modification of the method described in the publication of C. Brideau et al., “A human whole blood assay for clinical evaluation of biochemical efficacy of cyclooxygenase inhibitors”, Inflamm Res 1996; 45: 68-74. The respective part of the description is hereby incorporated by reference and forms part of the present disclosure.
For Cox-1 activity determination, fresh human blood is distributed in a volume of 0.5 ml to silicone Eppendorf tubes, into which 2 μl of the compound to be tested or dimethylsulfoxide (DMSO) at a final concentration of 0.4% (volume/volume). The tubes are inverted for homogenization and incubated for 1 hour at 37° C. under slight stirring. Afterwards they are centrifuged for 15 min at 10500 g and 100 μl of serum is collected. Proteins are precipitated by the addition of 400 μl of methanol to each tube, tubes were centrifuged for 10 minutes at 5000 g and 300 μl of supernatant is aspirated and then dried under nitrogen atmosphere.
Tromboxane B2 (TXB2) concentration is quantified using an assay kit (Caymann Chemical, Ann Arbor, Mich., U.S.A., Catalogue number 519031) after reconstitution into 300 μl assay buffer supplied in the assay kit.

[2] = system: PGE2 production in rat inflammatory exudate; experiment: PGE2 production in rat inflammatory exudate; type: in vivo; settings: rats, oral route, carrageenan sponge implant, read-out: PGE2 Inflam. exudade ED50
Method: as §1, §2, §3, §4, §5

Cox-2 enzyme = molecular target: T2, Cox-2 enzyme (Ovis aries, UniProt P79208); experiment: Cox-1/Cox-2 enzyme assay (Cox-2); type: biochemical; settings: for IC50: enzyme assay
T2 construct: purchased Cayman Chemical 60120
T2 sequence (P79208 17-603): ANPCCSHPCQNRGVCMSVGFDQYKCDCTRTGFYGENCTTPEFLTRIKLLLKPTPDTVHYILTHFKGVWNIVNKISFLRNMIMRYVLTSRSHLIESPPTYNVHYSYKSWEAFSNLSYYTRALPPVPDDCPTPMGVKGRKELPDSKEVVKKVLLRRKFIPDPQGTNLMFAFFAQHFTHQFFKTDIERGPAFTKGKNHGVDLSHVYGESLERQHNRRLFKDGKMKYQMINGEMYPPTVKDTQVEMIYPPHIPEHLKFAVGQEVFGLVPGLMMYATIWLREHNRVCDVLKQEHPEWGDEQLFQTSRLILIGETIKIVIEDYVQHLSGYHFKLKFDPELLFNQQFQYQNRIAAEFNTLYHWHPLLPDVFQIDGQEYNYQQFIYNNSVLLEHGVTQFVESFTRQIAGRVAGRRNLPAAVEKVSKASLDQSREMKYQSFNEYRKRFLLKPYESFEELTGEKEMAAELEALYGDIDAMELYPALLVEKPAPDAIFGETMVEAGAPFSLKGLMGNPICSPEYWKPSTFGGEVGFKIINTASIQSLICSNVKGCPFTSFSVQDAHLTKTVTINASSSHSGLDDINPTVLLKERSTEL
Method: I. Cox-1/Cox-2 Enzyme Assay:
The Cox-1/Cox-2 enzyme assay for the inventive azetidine compounds is carried out according to the following description:
Immediately after the addition of the substrate, the slope corresponding to the optical density increase at 480 nm is recorded for 1 minute. The reaction is monitored with a Hewlett-Packard 8452A spectrophotometer.

rats = experiment: Test for activity against edema in rats (carrageenin paw); type: in vivo; settings: Rattus norvegicus, oral route
Method: IV. Test for Activity Against Edema in Rats
The test for activity against edema is carried out as described in the publication of Winter et al., Proc. Soc. Exp. Biol. Med. 111, 544-547, (1962). The respective part of the description is hereby incorporated by reference and forms part of the present disclosure.
At the beginning of each experimental session the rats are deprived of food, and kept in cages within groups of 5 animals, the cages being fitted with a grating on the floor to prevent coprophagy. After a period of 24 hours without food, the animals are marked in a suitable way, weighed and hydrated via oral administration of 30 ml/kg body weight of tap water. Half an hour after the hydratisation, the compounds to be tested are administered via oral route, in an amount of 10 ml/kg body weight as a suspension in gum arabic at 5% (weight/volume). One hour after administration of the compounds the animals receive 0.1 ml of the inflammation causing agent (carrageenin 1% weight/volume, in sterile solution), injected via subplantar route into the right hind paw of the rats. Immediately after the carrageenin injection the volume of the injected paw is determined using a plethysmometer. The readings are expressed in ml. Readings of the volume of the paw are taken every hour after administration of the carrageenin for 7 hours.

Row | SMILES | melting point | ED50 [1] | IC50 (Cox-1) | ED50 [2] | IC50 (Cox-2 enzyme) | ED50 (rats) | inhibition at 50 µM (Cox-2 enzyme; read-out: % inhibition 5 × 10^−5 M COX-2)
1 | CC1C(O)CN1C(=O)c1cc(C(C)(C)C)c(O)c(C(C)(C)C)c1 (stereo not drawn) [Example 4, (3,5-di-tert-butyl-4-hydroxy-phenyl)-(3-hydroxy-2-methyl-azetidin-1-yl)-methanone] | 162 to 166 °C | 1 mg/kg | 500 nM | 5.8 mg/kg | 3750 nM | 31 mg/kg | –
2 | CC(C)(C)c1cc(C(=O)N2CC(O)C2)cc(C(C)(C)C)c1 [Example 2, (3,5-di-tert-butyl-phenyly)-(3-hydroxy-azetidin-1-yl)-methanone] | 146 to 149 °C | 3.7 mg/kg | 500 nM | 5.9 mg/kg | 1800 nM | 28 mg/kg | 78%
3 | CC(C)(C)c1cc(C(=O)N2CC(O)C2)cc2c1OCC2(C)C [Example 14, (7-tert-butyl-3,3-dimethyl-2,3-dihydro-benzofuran-5-yl)-(3-hydroxy-azetidin-1-yl)-methanone] | 144 to 148 °C | 2.7 mg/kg | 50 nM | 1.8 mg/kg | 600 nM | – | –
